For data set [1], the system named is normal human epidermal keratinocytes (HEKa cells). The data set is described as follows: IL-8 release from keratinocytes stimulated with IL-17, IL-22 and TNFα. In kind it is cell-based. To be noted: 16 hrs. How it is done:
To test the foregoing hypothesis, the inventors devised an in vitro model for the inflammatory conditions prevalent in the skin of subjects with dandruff. The model involves in vitro tissue culture of normal human epidermal keratinocytes (HEKa cells). The cells were exposed to a combination of IL-17, TNFα and IL-22 to stimulate an inflammatory-type response, which response was measured by production of IL-8 by the keratinocytes and also by analysis of their general gene expression profile. Adult proliferating human epidermal karatinocytes (HEKa) (from Thermo Fisher Scientific) used at low passage (p3 or lower). Cells were cultured in keratinocyte maintenance medium KGM Gold (Lonza Group) containing all components of the bullet kit plus 70 μM calcium. For the assay, cells were plated in KGM Gold with all components of the bullet kit except hydrocortisone and gentamycin, supplemented with 70 μM calcium. […] After 16 hrs the cell culture medium was removed and the amount of IL-8 cytokine released from the keratinocyte cells was quantified using a DuoSet IL-8 ELISA kit (R&D Systems Ltd). The keratinocyte cells were lysed in RIPA buffer and the total amount of protein in each sample quantified using a Pierce BCA protein assay kit (Thermofisher Ltd). […] All treatments were run in triplicate and a mean and standard deviation value calculated, the results being illustrated in FIG. 3.

In data set [2] the test system is MCF7 cells. To be noted: 13 μM myricetin vs DMSO vehicle control, FIGS. 2A and 2B; cited from earlier work.
For data set [3] the following is noted: 25° C.; cited from earlier work.

Each structure is given as a SMILES string.

The text below walks through data of patent US20190231666A1, “ANTI-DANDRUFF COMPOSITION” (Conopco, Inc., d/b/a UNILEVER, priority 2016, published 2019).

For `O=c1c(O)c(-c2cc(O)c(O)c(O)c2)oc2cc(O)cc(O)c12` [Myricetin, myricetin], in data set [1] (6.5 μg/ml myricetin, IL-17 200 ng/ml, IL-22 200 ng/ml, TNFa 10 ng/ml, p=0.0001), the “inflammatory response to the cytokines (IL-8 release)” value was “marked inhibition”. In data set [1] (HEKa cells, IL-17, TNFα and IL-22 stimulation, FIG. 3), the “production of IL-8 (inflammatory response)” value is reported as “significant reduction”. Moreover, the “effect on gene expression changes observed in dandruff scalp skin relative to healthy scalp skin” value in data set [2] is recorded as “reverse some of the gene expression changes”. For the same molecule, the solubility in water entry in data set [3] is “about 55 mg/L”.
